Experimental data reported in patent publication US11498899B2, “Nitrone herbicides” (FMC Corporation, priority 2016, dated 2022).

Legend:
[1] = system: barnyardgrass (Echinochloa crus-galli); test: Test A preemergence, visual injury rating 0-100 (0 no effect, 100 complete control); assay type: in vivo
[2] = system: foxtail, giant (giant foxtail, Setaria faberii); test: Test A preemergence, visual injury rating 0-100; assay type: in vivo
[3] = system: kochia (Kochia scoparia); test: Test A preemergence, visual injury rating 0-100; assay type: in vivo
[4] = system: pigweed (Amaranthus retroflexus); test: Test A preemergence, visual injury rating 0-100; assay type: in vivo
[5] = system: ragweed (common ragweed, Ambrosia elatior); test: Test A preemergence, visual injury rating 0-100; assay type: in vivo
[6] = system: ryegrass, Italian (Italian ryegrass, Lolium multiflorum); test: Test A preemergence, visual injury rating 0-100; assay type: in vivo
[7] = system: barnyardgrass (Echinochloa crus-galli); test: Test A postemergence, visual injury rating 0-100; assay type: in vivo; details: 0 to 100 scale
[8] = system: blackgrass (Alopecurus myosuroides); test: Test A postemergence, visual injury rating 0-100; assay type: in vivo; details: 0 to 100 scale
[9] = system: corn (Zea mays); test: Test A postemergence, visual injury rating 0-100; assay type: in vivo; details: 0 to 100 scale
[10] = system: foxtail, giant (giant foxtail, Setaria faberii); test: Test A postemergence, visual injury rating 0-100; assay type: in vivo; details: 0 to 100 scale
[11] = system: galium (catchweed bedstraw, Galium aparine); test: Test A postemergence, visual injury rating 0-100; assay type: in vivo; details: 0 to 100 scale
[12] = system: kochia (Kochia scoparia); test: Test A postemergence, visual injury rating 0-100; assay type: in vivo; details: 0 to 100 scale
[13] = system: pigweed (Amaranthus retroflexus); test: Test A postemergence, visual injury rating 0-100; assay type: in vivo; details: 0 to 100 scale
[14] = system: ragweed (common ragweed, Ambrosia elatior); test: Test A postemergence, visual injury rating 0-100; assay type: in vivo; details: 0 to 100 scale
[15] = system: ryegrass, Italian (Italian ryegrass, Lolium multiflorum); test: Test A postemergence, visual injury rating 0-100; assay type: in vivo; details: 0 to 100 scale
[16] = system: wheat (Triticum aestivum); test: Test A postemergence, visual injury rating 0-100; assay type: in vivo; details: 0 to 100 scale
[17] = system: ducksalad (Heteranthera limosa); test: Test B flooded paddy test, visual rating 0-100; details: Flood, 250 g ai/ha, applied to paddy water, rated after 13 to 15 days
[18] = system: barnyardgrass (Echinochloa crus-galli); test: Test B flooded paddy test, visual rating 0-100; details: Flood, 250 g ai/ha, applied to paddy water, rated after 13 to 15 days
[19] = system: rice (Oryza sativa); test: Test B flooded paddy test, visual rating 0-100 (0 no effect, 100 complete control); details: Flood, 250 g ai/ha, applied to paddy water, rated after 13 to 15 days

SMILES | Barnyardgrass plant response rating (0 to 100 scale) ([1]; 125 g ai/ha) | Barnyardgrass plant response rating (0 to 100 scale) ([1]; 500 g ai/ha) | Foxtail, Giant plant response rating (0 to 100 scale) ([2]; 125 g ai/ha) | Foxtail, Giant plant response rating (0 to 100 scale) ([2]; 500 g ai/ha) | Kochia plant response rating (0 to 100 scale) ([3]; 125 g ai/ha) | Kochia plant response rating (0 to 100 scale) ([3]; 500 g ai/ha) | Pigweed plant response rating (0 to 100 scale) ([4]; 125 g ai/ha) | Pigweed plant response rating (0 to 100 scale) ([4]; 500 g ai/ha) | Ragweed plant response rating (0 to 100 scale) ([5]; 125 g ai/ha) | Ragweed plant response rating (0 to 100 scale) ([5]; 500 g ai/ha) | Ryegrass, Italian plant response rating (0 to 100 scale) ([6]; 125 g ai/ha) | Ryegrass, Italian plant response rating (0 to 100 scale) ([6]; 500 g ai/ha) | Barnyardgrass plant response rating ([7]; 125 g ai/ha) | Barnyardgrass plant response rating ([7]; 500 g ai/ha) | Blackgrass plant response rating ([8]; 125 g ai/ha) | Blackgrass plant response rating ([8]; 500 g ai/ha) | Corn plant response rating ([9]; 125 g ai/ha) | Corn plant response rating ([9]; 500 g ai/ha) | Foxtail, Giant plant response rating ([10]; 125 g ai/ha) | Foxtail, Giant plant response rating ([10]; 500 g ai/ha) | also measured
CC1=[N+]([O-])C(C(=O)Nc2cccc(F)c2F)C(c2cc(C)n(Cc3ccc(Cl)cc3)c(=O)c2)C1 (racemic) [Compound 86] | 0 | 0 | 0 | 0 | 0 | 0 | 0 | 0 | 0 | 0 | 0 | 0 | 0 | 0 | 0 | 0 | 0 | 10 | 0 | 0 | Galium plant response rating ([11]; 125 g ai/ha): 0; Galium plant response rating ([11]; 500 g ai/ha): 0; Kochia plant response rating ([12]; 125 g ai/ha): 0; Kochia plant response rating ([12]; 500 g ai/ha): 0; Pigweed plant response rating ([13]; 125 g ai/ha): 0; Pigweed plant response rating ([13]; 500 g ai/ha): 0; Ragweed plant response rating ([14]; 125 g ai/ha): 0; Ragweed plant response rating ([14]; 500 g ai/ha): 0; Ryegrass, Italian plant response rating ([15]; 125 g ai/ha): 0; Ryegrass, Italian plant response rating ([15]; 500 g ai/ha): 0; Wheat plant response rating ([16]; 125 g ai/ha): 0; Wheat plant response rating ([16]; 500 g ai/ha): 0; Ducksalad plant response rating (0 to 100 scale) [17]: 0; Barnyardgrass plant response rating (0 to 100 scale) [18]: 0; Rice plant response rating (0 to 100 scale) [19]: 0
CC1=[N+]([O-])C(C(=O)Nc2cccc(F)c2F)C(c2ccc(C(F)(F)F)c(C)c2)C1 (racemic) [Compound 87] | 90 | 90 | 90 | 90 | 10 | 80 | 100 | 100 | 0 | 70 | 90 | 90 | 80 | 90 | 70 | 90 | 70 | 80 | 60 | 90 | Galium plant response rating ([11]; 125 g ai/ha): 0; Galium plant response rating ([11]; 500 g ai/ha): 70; Kochia plant response rating ([12]; 125 g ai/ha): 10; Kochia plant response rating ([12]; 500 g ai/ha): 70; Pigweed plant response rating ([13]; 125 g ai/ha): 0; Pigweed plant response rating ([13]; 500 g ai/ha): 50; Ragweed plant response rating ([14]; 125 g ai/ha): 10; Ragweed plant response rating ([14]; 500 g ai/ha): 30; Ryegrass, Italian plant response rating ([15]; 125 g ai/ha): 70; Ryegrass, Italian plant response rating ([15]; 500 g ai/ha): 90; Wheat plant response rating ([16]; 125 g ai/ha): 70; Wheat plant response rating ([16]; 500 g ai/ha): 80; Ducksalad plant response rating (0 to 100 scale) [17]: 85; Barnyardgrass plant response rating (0 to 100 scale) [18]: 50; Rice plant response rating (0 to 100 scale) [19]: 0
CC1=[N+]([O-])C(C(=O)Nc2cccc(F)c2F)C(c2ccc(C(F)(F)F)cn2)C1 (racemic) [Compound 88] | 20 | 90 | 20 | 90 | 10 | 70 | 0 | 60 | 0 | 80 | 0 | 0 | 0 | 50 | 10 | 30 | 0 | 0 | 0 | 10 | Galium plant response rating ([11]; 125 g ai/ha): 20; Galium plant response rating ([11]; 500 g ai/ha): 50; Kochia plant response rating ([12]; 125 g ai/ha): 0; Kochia plant response rating ([12]; 500 g ai/ha): 30; Pigweed plant response rating ([13]; 125 g ai/ha): 0; Pigweed plant response rating ([13]; 500 g ai/ha): 0; Ragweed plant response rating ([14]; 125 g ai/ha): 0; Ragweed plant response rating ([14]; 500 g ai/ha): 10; Ryegrass, Italian plant response rating ([15]; 125 g ai/ha): 0; Ryegrass, Italian plant response rating ([15]; 500 g ai/ha): 0; Wheat plant response rating ([16]; 125 g ai/ha): 0; Wheat plant response rating ([16]; 500 g ai/ha): 0; Ducksalad plant response rating (0 to 100 scale) [17]: 100; Barnyardgrass plant response rating (0 to 100 scale) [18]: 15; Rice plant response rating (0 to 100 scale) [19]: 15
